Consider five molecules from US20250034135A1, “ANTI-APOPTOTIC PROTEIN BCL-2 INHIBITOR, PHARMACEUTICAL COMPOSITION AND USES THEREOF” (HANGZHOU HEALZEN THERAPEUTICS CO., LTD., priority 2021, published 2025).

In one data set the target is BCL2 (G101V) (Homo sapiens (Human), UniProt P10415, G101V). Description: Molecular level activity test of anti-apoptotic protein BCL2 (G101V) (HTRF, binding to Bim peptide). The conditions noted are these: inhibition of BCL2 (G101V) binding to Bim peptide, read-out: BCL-2 (G101V). A digest of the protocol:
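His-tagged recombinant BCL2 (G101V) incubated 1 h with biotin-BIM peptide and compound (2% DMSO), then anti-His and streptavidin-XL665 detection reagents added for 4 h at room temperature. HTRF signal reflects compound effect on BCL2–BIM binding.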

The next data set has as its target BCL2 (Homo sapiens (Human), UniProt P10415). Description: Molecular level activity test of anti-apoptotic protein BCL2 (HTRF, binding to Bim peptide). A digest of the protocol: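 Disruption of the BCL2/Bim peptide interaction is detected by homogeneous time-resolved fluorescence, using anti-His and streptavidin-XL665 reagents against His-tagged protein and biotin-tagged peptide. Compound exposure lasts 1 h before reagent addition; plates then sit 4 h at room temperature.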

The next data set has as its target human CYP3A4 enzyme (Homo sapiens (Human), UniProt P08684). Description: CYP3A4 enzyme inhibitory activity (Vivid CYP3A4 Green screening kit). The settings on record: read-out: CYP3A4 (IC50); Vivid CYP3A4 Green screening kit.
The next data set deals with BCL2 (D103Y) (Homo sapiens (Human), UniProt P10415, D103Y). Description: Molecular level activity test of BCL2 (D103Y) (HTRF, binding to Bim peptide). The settings on record: read-out: BCL-2 (D103Y) (nM) (inhibitory activity, IC50). In short, it runs like this: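 His-tagged recombinant protein mixed with biotinylated BIM peptide and compound (2% DMSO), reacted 1 h. Anti-His and streptavidin-XL665 detection reagents then added and incubated 4 h at room temperature before HTRF read-out of binding inhibition.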

For another data set, the system named is RS4; 11 cells. Description: Tumor proliferation inhibitory activity test (MTS) on RS4; 11. The class given is cell-based. The settings on record: Homo sapiens, RS4-11, 72 h, 3 days incubation. In short, it runs like this: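 RS4;11 cells were exposed to serially diluted compound (0.2% DMSO control) for 3 days at 37 °C/5% CO2, followed by MTS for 3–4 h. Read-out was OD490−OD690, and inhibition was calculated relative to the DMSO and blank wells.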

A further data set concerns the target BCL-XL (Homo sapiens (Human), UniProt Q07817). Description: BCL-XL enzyme molecular level activity test (HTRF, binding to BIM peptide). The settings on record: binding of BCL-XL to BIM peptide, read-out: BCL-XL inhibitory activity (IC50). A digest of the protocol:
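HTRF binding assay: His-tagged recombinant BCL-XL with biotin-BIM peptide and compound (2% DMSO), 1 h. Anti-His and streptavidin-XL665 detection reagents added, 4 h at room temperature. Excitation 320 nm; 665/615 nm ratio reflects binding, with no-protein background and no-compound full-binding controls.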

The mark [1] stands for this setting: HTRF, binding of BCL2 to Bim peptide, read-out: BCL2 nM (inhibitory activity, IC50).

Where two headings read alike, the source gives them in different places. Where only a bound is given, the exact number is not on record here.

Chain of BCL-XL (Q07817 whole entry): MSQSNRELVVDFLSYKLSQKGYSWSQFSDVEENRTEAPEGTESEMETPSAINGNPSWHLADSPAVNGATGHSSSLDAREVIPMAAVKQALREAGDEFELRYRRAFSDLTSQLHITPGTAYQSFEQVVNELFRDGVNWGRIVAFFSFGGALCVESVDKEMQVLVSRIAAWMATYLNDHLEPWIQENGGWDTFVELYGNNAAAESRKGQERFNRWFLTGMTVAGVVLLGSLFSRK
Chain of human CYP3A4 enzyme (P08684 whole entry): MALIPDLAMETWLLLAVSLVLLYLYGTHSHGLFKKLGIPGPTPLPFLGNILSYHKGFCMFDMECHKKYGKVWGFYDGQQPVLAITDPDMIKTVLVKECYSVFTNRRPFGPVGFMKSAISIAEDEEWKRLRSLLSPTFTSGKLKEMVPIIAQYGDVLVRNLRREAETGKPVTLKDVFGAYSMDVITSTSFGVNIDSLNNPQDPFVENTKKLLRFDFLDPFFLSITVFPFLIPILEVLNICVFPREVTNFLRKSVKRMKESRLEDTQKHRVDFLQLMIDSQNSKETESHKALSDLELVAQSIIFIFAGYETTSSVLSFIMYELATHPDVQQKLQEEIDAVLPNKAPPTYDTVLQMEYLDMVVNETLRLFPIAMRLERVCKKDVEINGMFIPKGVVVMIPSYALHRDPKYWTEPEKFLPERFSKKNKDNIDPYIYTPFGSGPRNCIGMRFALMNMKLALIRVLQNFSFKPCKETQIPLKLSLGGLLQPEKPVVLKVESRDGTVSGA
Procedure for human CYP3A4 enzyme: The inhibitory activity of compounds on human CYP3A4 enzyme was detected using a VIVID™ CYP3A4 GREEN SCRNING KIT reagent kit. The Vivid™ CYP450 screening kit includes a Vivid™ substrate, Vivid™ fluorescence standard, reaction buffer, Vivid™ regeneration system, NADP+ and CYP450 BACULOSOMES™ Plus reagent. Operations were performed following the instructions, and a blank control group was set up without adding any compounds.
The IC50 value of the compounds inhibiting human CYP3A4 enzyme was calculated using Graphpad Prism 7.00 software through the formula Y=100/(1+10^((Log IC50−X)*HillSlope)).

Consider `COc1ccc(CN2CCN(C3CC4(CCN(c5cc(Oc6cnc7[nH]ccc7c6)c(C(=O)NS(=O)(=O)c6ccc(NCC7CCOCC7)c([N+](=O)[O-])c6)cn5)CC4)C3)[C@H](c3ccccc3C(C)C)C2)cc1` [compound 257, (R)-4-((1H-pyrrolo[2,3-b]pyrid-5-yl)oxy)-6-(2-(2-(2-isopropylphenyl)-4-(4-methoxybenzyl)piperazin-1-yl)-7-azaspiro[3.5]non-7-yl)-N-((3-nitro-4-(((tetrahydro-2H-pyran-4-yl)methyl)amino)phenyl)sulfonyl) nicotinamide], for which the IC50 on BCL2 (G101V) was < 10 nM; at BCL2 (setting [1]), < 10 nM; on human CYP3A4 enzyme, > 20000 nM; on BCL2 (D103Y) it was < 10 nM; in the data set with RS4; 11 cells, < 0.5 nM.

For `COc1ccc(CN2CCN(C3CC4(CCN(c5cc(Oc6cnc7[nH]ccc7c6)c(C(=O)NS(=O)(=O)c6ccc(NCC7(F)CCN(C8COC8)CC7)c([N+](=O)[O-])c6)cn5)CC4)C3)C(c3ccccc3C(C)C)C2)cc1` (stereo not shown) [compound 053, 4-((1H-pyrrolo[2,3-b]pyrid-5-yl)oxy)-N-((4-(((4-fluoro-1-(oxocyclobut-3-yl)piperid-4-yl)methyl)amino)-3-nitrophenyl)sulfonyl)-6-(2-(2-(2-isopropylphenyl)-4-(4-methoxybenzyl)piperazin-1-yl)-7-azaspiro[3.5]non-7-yl) nicotinamide], the IC50 on BCL2 (G101V) is < 10 nM; at BCL2 (setting [1]), < 10 nM; at human CYP3A4 enzyme it was > 20000 nM; at BCL2 (D103Y) it was < 10 nM; in the data set on RS4; 11 cells it was < 0.5 nM.

Regarding `COc1ccc(CN2CCN(C3CC4(CCN(c5cc(Oc6cnc7[nH]cc(F)c7c6)c(C(=O)NS(=O)(=O)c6ccc(NCC7(F)CCOCC7)c([N+](=O)[O-])c6)cc5F)CC4)C3)[C@H](c3ccccc3C(C)C)C2)cc1OC` [compound 253, (R)-4-(2-(4-(3,4-dimethoxybenzyl)-2-(2-isopropylphenyl)piperazin-1-yl)-7-azaspiro[3.5]non-7-yl)-5-fluoro-2-((3-fluoro-1H-pyrrolo[2,3-b]pyrid-5-yl)oxy)-N-((4-(((4-fluorotetrahydro-2H-pyran-4-yl)methyl)amino)-3-nitrophenyl)sulfonyl)benzamide], the IC50 at BCL2 (G101V) is < 10 nM; at BCL2 it was < 10 nM; on BCL2 (D103Y) it was < 10 nM; in the data set with RS4; 11 cells, 0.5 to 1 nM; at BCL-XL (values in nM), > 500 nM.

On to `CNCc1ccc(CN2CCN(C3CC4(CCN(c5cc(Oc6cnc7[nH]ccc7c6)c(C(=O)NS(=O)(=O)c6ccc(NCC7(F)CCOCC7)c([N+](=O)[O-])c6)cc5F)CC4)C3)[C@H](c3ccccc3C(C)C)C2)cc1OC` [compound 246, (R)-2-((1H-pyrrolo[2,3-b]pyrid-5-yl)oxy)-5-fluoro-N-((4-(((4-fluorotetrahydro-2H-pyran-4-yl)methyl)amino)-3-nitrophenyl)sulfonyl)-4-(2-(2-(2-isopropylphenyl)-4-(3-methoxy-4-((methylamino)methyl)benzyl)piperazin-1-yl)-7-azaspiro[3.5]non-7-yl)benzamide], for which the IC50 is < 10 nM on BCL2 (G101V); < 10 nM at BCL2 (setting [1]); < 10 nM at BCL2 (D103Y); 0.5 to 1 nM with RS4; 11 cells; > 500 nM at BCL-XL (values in nM).

Take `CC(C)c1ccccc1[C@@H]1CCCN1C1CC2(CCN(c3cc(Oc4cnc5[nH]ccc5c4)c(C(=O)NS(=O)(=O)c4cc([N+](=O)[O-])c(NCC5(F)CCN(C6COC6)CC5)c5[nH]cnc45)cn3)CC2)C1` [compound 019, (S)-4-((1H-pyrrolo[2,3-b]pyrid-5-yl)oxy)-N-((7-(((4-fluoro-1-(oxocyclobut-3-yl)piperid-4-yl)methyl)amino)-6-nitro-1H-benzo[d]imidazol-4-yl)sulfonyl)-6-(2-(2-(2-isopropylphenyl)pyrrolidin-1-yl)-7-azaspiro[3.5]non-7-yl) nicotinamide]: the IC50 at BCL2 (G101V) is < 10 nM; on BCL2 (setting [1]), < 10 nM; on BCL2 (D103Y), < 10 nM; with RS4; 11 cells, 0.5 to 1 nM; at BCL-XL (values given in μM), > 1000 nM.
